Experimental data published in US20130041023A1, “Composition for Preventing or Treating Rotavirus Infection Comprising Licorice Extract” (priority 2010, published 2013).
Like-named read-outs stand apart in the source and are kept apart here. Each block holds one compound with its values, some of them ahead of it.

Columns and labels:
[1] = Cytotoxicity (CC50) in TF-104 cells; format: cell-based; settings: rhesus monkey, TF-104 cells (fetal rhesus monkey kidney cell line)
Protocol: In order to the CPE (cytopathic effect) reduction effects and virucidal effects of the compounds separated from licorice on bovine rotavirus NCDV (G6P[1]) and porcine rotavirus KJ205 […][7]), the following in vitro experiment was performed using the fetal rhesus monkey kidney cell line TF-104. First, TF-104 cells were added to a 96-well microplate at a density of 4×10^4 cells/well and cultured with alpha-MEM medium (penicillin 100 units, […], 5% FBS). When the TF-104 cells formed a monolayer, the cells were washed twice with alpha-MEM containing only an antibiotic. Each of NCDV and KJ205 was diluted to an MOI of 0.01 and placed in EP tubes. Each of the licorice extract and the polyphenolic compounds, diluted with dimethylsulfoxide (DMSO), was placed in each of the tubes at varying concentrations and then allowed to react at 4° C. for 1 hour. After 1 hour, the reaction material was inoculated into the washed TF-104 cells in such a manner that one sample concentration was inoculated into 3 wells (hereinafter referred to as “sample-treated groups”). Meanwhile, a non-infected+non-administered control (cell group not infected with NCDV or KJ205 and not treated with the compound) and an infected+non-administered control (virus control; a cell group infected with NCDV or KJ205, but not treated with the compound) were allowed to react under the same conditions for 1 hour, and then inoculated into the TF-104 cells, which were then incubated at 37° C. for 1 hours. After 1 hour, the medium was completely removed from the plate, which was then washed once with PBS. Then, […] medium containing 1 mg/mL of trypsin and antibiotic were dispensed into each well of the plate and incubated at 37° C. for 5-6 days. In the case of the infected +non-administered control group, incubation was performed for 5-6 days until the cytopathic effect (CPE) of the virus clearly appeared. […] After 5-6 days of the incubation, in order to examine the viability of the cells, […] solution (Sigma, UK) was added to each well of the place and allowed to react at 37° C. for 2 hours. Then, the medium was removed, […] solution (1% glacial acetic acid, 49% DDW, 50% EtOH) was added to each well, and after 15 minutes, the absorbance at 540 nm was measured. The virucidal effects (inhibition %) of the inventive compounds separated from licorice compared to the non-infected+non-administered control group and the infected+non-administered control group were calculated using the following equation 1, and the results of the calculation are shown in Table 1 below.

[2] = test system: porcine rotavirus KJ205 (G5P[7]); test: CPE inhibition effect, porcine rotavirus KJ205 (TF-104 cells treated after virus inoculation); format: cell-based; settings: for EC50: TF-104 cells; for selectivity ratio: rhesus monkey, read-out: S.I. (selective index, CC50/EC50)
Protocol: In order to the CPE (cytopathic effect) reduction effects and virucidal effects of the compounds separated from licorice on bovine rotavirus NCDV (G6P[1]) and porcine rotavirus KJ205 […][7]), the following in vitro experiment was performed using the fetal rhesus monkey kidney cell line TF-104. Inhibition %=(O.D) value of sample-treated group-(O.D) value of infected+non-administered control/(O.D) value of non-infected+non-administered control-(O.D) value of infected+non-administered control×100 [Equation 1] In the above equation, the O.D value means the absorbance measured at 540 nm. Meanwhile, in order to examine the inhibitory effects of the compounds separated from licorice on the CPE of bovine rotavirus NCDV (G6P[1]) and porcine rotavirus KJ205 […][7]), […] were washed twice with alpha-MEM containing only an antibiotic, after which the viruses were inoculated into the TF-104 cells and incubated at 37° C. for 1 hour. After 1 hour, the inoculated virus liquids were completely removed, the virus-inoculated TF-104 cells were treated with varying concentrations of the licorice extract and the polyphenolic compounds. Further, the cytopathic effect inhibition (inhibition %) of the compounds separated from licorice were calculated using equation 1 above in the same manner as described above, and the results of the calculation are shown in Table 1 below.

[3] = test system: porcine rotavirus KJ205 (G5P[7]); test: Virucidal effect against porcine rotavirus KJ205 (sample pre-reacted with virus, neutral red readout in TF-104 cells); format: cell-based; settings: for EC50: TF-104 cells; for virucidal effect, result in words: bovine and/or porcine rotavirus as worded
Protocol: (§1) In order to the CPE (cytopathic effect) reduction effects and virucidal effects of the compounds separated from licorice on bovine rotavirus NCDV (G6P[1]) and porcine rotavirus KJ205 (G5P[7]), the following in vitro experiment was performed using the fetal rhesus monkey kidney cell line TF-104.
First, TF-104 cells were added to a 96-well microplate at a density of 4×10^4 cells/well and cultured with alpha-MEM medium (penicillin 100 units, […], 5% FBS). When the TF-104 cells formed a monolayer, the cells were washed twice with alpha-MEM containing only an antibiotic. Each of NCDV and KJ205 was diluted to an MOI of 0.01 and placed in EP tubes. Each of the licorice extract and the polyphenolic compounds, diluted with dimethylsulfoxide (DMSO), was placed in each of the tubes at varying concentrations and then allowed to react at 4° C. for 1 hour. After 1 hour, the reaction material was inoculated into the washed TF-104 cells in such a manner that one sample concentration was inoculated into 3 wells (hereinafter referred to as “sample-treated groups”). Meanwhile, a non-infected+non-administered control (cell group not infected with NCDV or KJ205 and not treated with the compound) and an infected+non-administered control (virus control; a cell group infected with NCDV or KJ205, but not treated with the compound) were allowed to react under the same conditions for 1 hour, and then inoculated into the TF-104 cells, which were then incubated at 37° C. for 1 hours. After 1 hour, the medium was completely removed from the plate, which was then washed once with PBS. Then, […] medium containing 1 mg/mL of trypsin and antibiotic were dispensed into each well of the plate and incubated at 37° C. for 5-6 days. In the case of the infected +non-administered control group, incubation was performed for 5-6 days until the cytopathic effect (CPE) of the virus clearly appeared. […] After 5-6 days of the incubation, in order to examine the viability of the cells, […] solution (Sigma, UK) was added to each well of the place and allowed to react at 37° C. for 2 hours. Then, the medium was removed, […] solution (1% glacial acetic acid, 49% DDW, 50% EtOH) was added to each well, and after 15 minutes, the absorbance at 540 nm was measured. The virucidal effects (inhibition %) of the inventive compounds separated from licorice compared to the non-infected+non-administered control group and the infected+non-administered control group were calculated using the following equation 1, and the results of the calculation are shown in Table 1 below.
Inhibition %=(O.D) value of sample-treated group−(O.D) value of infected+non-administered control/(O.D) value of non-infected+non-administered control−(O.D) value of infected+non-administered control×100 [Equation 1]
(§2) In the above equation, the O.D value means the absorbance measured at 540 nm.

[4] = test system: bovine rotavirus NCDV (G6P[1]); test: Virucidal effect against bovine rotavirus NCDV (sample pre-reacted with virus, neutral red readout in TF-104 cells); format: cell-based
Protocol: as §1
First, TF-104 cells were added to a 96-well microplate at a density of 4×10^4 cells/well and cultured with alpha-MEM medium (penicillin 100 units, […], 5% FBS). When the TF-104 cells formed a monolayer, the cells were washed twice with alpha-MEM containing only an antibiotic. Each of NCDV and KJ205 was diluted to an MOI of 0.01 and placed in EP tubes. […] Then, the medium was removed, […] solution (1% glacial acetic acid, 49% DDW, 50% EtOH) was added to each well, and after 15 minutes, the absorbance at 540 nm was measured. The virucidal effects (inhibition %) of the inventive compounds separated from licorice compared to the non-infected+non-administered control group and the infected+non-administered control group were calculated using the following equation 1, and the results of the calculation are shown in Table 1 below. […]
as §2

[5] = CPE inhibition effect section, KJ205 (G5P[7]), read-out: CC50
[6] = Virucidal effect, KJ205 (G5P[7])

EC50 [2]: 35.3 µM
Structure (SMILES): O=C(/C=C/c1ccc(O)cc1)c1ccc(O)cc1O [Compound 1, isoliquiritigenin]
CC50 [1, 5]: 138 µM | selectivity ratio [2]: 3.9

EC50 [2]: 24 µM
Structure (SMILES): COc1cc(O)ccc1C(=O)/C=C/c1ccc(O)cc1 [Compound 2, 2-methoxyisoliquiritigenin]
CC50 [1, 5]: 280 µM | selectivity ratio [2]: 11.7

Structure (SMILES): COc1c(CC=C(C)C)c(O)cc2oc(-c3ccc(O)cc3O)cc12 [Compound 3, licocoumarone]
CC50 [1, 5]: 59.6 µM | melting point: 183 to 185 °C | EC50 [3, 6]: 26.1 µM | virucidal effect, result in words [3]: good inhibitory activities against bovine and porcine rotaviruses | EC50 [2]: 26.1 µM | selectivity ratio [2]: 2.3

Structure (SMILES): COc1c(CC=C(C)C)c(O)cc2c1CC(c1ccc(O)cc1O)CO2 (stereo not drawn) [Compound 4, glyasperin C]
EC50 ([4]; Rotavirus A, TF-104 cells, read-out: EC50 (50% concentration from inhibition concentration)): 26.2 µM | selectivity ratio ([4]; rhesus monkey, read-out: S.I. (selective index, CC50/EC50)): 1.5 | CC50 ([1]; Virucidal effect section, NCDV (G6P[1]) columns, read-out: CC50 (50% concentration from cytotoxic concentration)): 39.1 µM | EC50 [3, 6]: 18.7 µM | selectivity ratio ([3]; rhesus monkey, Virucidal effect, KJ205 (G5P[7]), read-out: S.I. (selective index, CC50/EC50)): 2.1 | virucidal effect, result in words [3]: selective virucidal effects against porcine rotavirus
